Results: ChEMBL document CHEMBL2010722, “Structure-activity relationship study of beta-carboline derivatives as haspin kinase inhibitors” (Bioorg Med Chem Lett, 2012)

Experiments:
[1] = target: Serine/threonine-protein kinase LATS2 (Homo sapiens) (UniProt Q9NRM7); experiment: Inhibition of LATS2 at 10 uM
[2] = target: Ribosomal protein S6 kinase alpha-5 (Homo sapiens) (UniProt O75582); experiment: Inhibition of MSK1 N-terminal at 10 uM
[3] = system: Hepatocyte growth factor receptor (Homo sapiens), P08581 [Y1235D]; experiment: Inhibition of MET Y1235D mutant at 10 uM
[4] = target: Tyrosine-protein kinase Lck (Homo sapiens) (UniProt P06239); experiment: Inhibition of LCK at 10 uM
[5] = target: Rho-associated protein kinase 2 (Homo sapiens) (UniProt O75116); experiment: Inhibition of ROCK2 at 10 uM
[6] = target: Citron Rho-interacting kinase (Homo sapiens) (UniProt O14578); experiment: Inhibition of CRIK at 10 uM
[7] = target: Ribosomal protein S6 kinase alpha-4 (Homo sapiens) (UniProt O75676); experiment: Inhibition of MSK2 N-terminal at 10 uM
[8] = target: Serine/threonine-protein kinase pim-1 (Homo sapiens) (UniProt P11309); experiment: Inhibition of PIM1 at 10 uM
[9] = target: Calcium/calmodulin-dependent protein kinase type II subunit beta (Homo sapiens) (UniProt Q13554); experiment: Inhibition of CaMK2b at 10 uM
[10] = target: Casein kinase I isoform epsilon (Homo sapiens) (UniProt P49674); experiment: Inhibition of CK1e at 10 uM
[11] = target: Tyrosine-protein kinase Mer (Homo sapiens) (UniProt Q12866); experiment: Inhibition of MER at 10 uM
[12] = target: Protein kinase C delta type (Homo sapiens) (UniProt Q05655); experiment: Inhibition of PKCdelta at 10 uM
[13] = target: Interleukin-1 receptor-associated kinase 1 (Homo sapiens) (UniProt P51617); experiment: Inhibition of IRAK1 at 10 uM
[14] = target: Fibroblast growth factor receptor 2 (Homo sapiens) (UniProt P21802); experiment: Inhibition of FGFR2 at 10 uM
[15] = target: Dual specificity protein kinase CLK2 (Homo sapiens) (UniProt P49760); experiment: Inhibition of CLK2 at 10 uM
[16] = target: AMP-activated protein kinase, AMPK (Homo sapiens) (UniProt P54646+O43741+P54619+Q9UGJ0+Q9Y478+Q13131+Q9UGI9); experiment: Inhibition of AMPKalpha2/beta1/gamma1 at 10 uM; type: protein-complex assay
[17] = target: Serine/threonine-protein kinase MRCK alpha (Homo sapiens) (UniProt Q5VT25); experiment: Inhibition of MRCKa at 10 uM
[18] = target: Tyrosine-protein kinase JAK2 (Homo sapiens) (UniProt O60674); experiment: Inhibition of JAK2 at 10 uM
[19] = target: Ephrin type-A receptor 1 (Homo sapiens) (UniProt P21709); experiment: Inhibition of EPHA1 at 10 uM
[20] = target: Ribosomal protein S6 kinase alpha-6 (Homo sapiens) (UniProt Q9UK32); experiment: Inhibition of RSK4 N-terminal at 10 uM
[21] = target: Serine/threonine-protein kinase PAK 2 (Homo sapiens) (UniProt Q13177); experiment: Inhibition of PAK2 at 10 uM
[22] = target: Cyclin-dependent kinase 7/ cyclin H (Homo sapiens) (UniProt P51946+P50613); experiment: Inhibition of CDK7-CycH-MAT1 at 10 uM; type: protein-complex assay
[23] = target: Serine/threonine-protein kinase Nek6 (Homo sapiens) (UniProt Q9HC98); experiment: Inhibition of NEK6 at 10 uM
[24] = target: Insulin receptor (Homo sapiens) (UniProt P06213); experiment: Inhibition of INSR at 10 uM
[25] = target: Serine/threonine-protein kinase PAK 1 (Homo sapiens) (UniProt Q13153); experiment: Inhibition of PAK1 at 10 uM
[26] = target: Casein kinase II alpha/beta (Homo sapiens) (UniProt P67870+P68400); experiment: Inhibition of CK2a1/b at 10 uM; type: protein-complex assay
[27] = target: Serine/threonine-protein kinase PLK1 (Homo sapiens) (UniProt P53350); experiment: Inhibition of PLK1 at 10 uM
[28] = target: Muscle, skeletal receptor tyrosine-protein kinase (Homo sapiens) (UniProt O15146); experiment: Inhibition of MUSK at 10 uM
[29] = target: Cyclin-dependent kinase 2/cyclin E1 (Homo sapiens) (UniProt P24864+P24941); experiment: Inhibition of CDK2-Cyclin E1 at 10 uM; type: protein-complex assay
[30] = target: Bone morphogenetic protein receptor type-1A (Homo sapiens) (UniProt P36894); experiment: Inhibition of BMPR1A at 10 uM
[31] = target: AMP-activated protein kinase (AMPK) alpha-1/beta-1/gamma-1 (Homo sapiens) (UniProt P54619+Q9Y478+Q13131); experiment: Inhibition of AMPKalpha1/beta1/gamma1 at 10 uM; type: protein-complex assay
[32] = target: Tyrosine-protein kinase FRK (Homo sapiens) (UniProt P42685); experiment: Inhibition of FRK at 10 uM
[33] = target: Serine/threonine-protein kinase N1 (Homo sapiens) (UniProt Q16512); experiment: Inhibition of PKN1 at 10 uM
[34] = target: Glycogen synthase kinase-3 beta (Homo sapiens) (UniProt P49841); experiment: Inhibition of GSK3b at 10 uM
[35] = target: Calcium/calmodulin-dependent protein kinase type IV (Homo sapiens) (UniProt Q16566); experiment: Inhibition of CaMK4 at 10 uM
[36] = target: Serine/threonine-protein kinase 38 (Homo sapiens) (UniProt Q15208); experiment: Inhibition of NDR1 at 10 uM
[37] = target: Homeodomain-interacting protein kinase 1 (Homo sapiens) (UniProt Q86Z02); experiment: Inhibition of HIPK1 at 10 uM
[38] = target: Receptor tyrosine-protein kinase erbB-2 (Homo sapiens) (UniProt P04626); experiment: Inhibition of HER2 at 10 uM
[39] = target: Dual specificity mitogen-activated protein kinase kinase 5 (Homo sapiens) (UniProt Q13163); experiment: Inhibition of MAP2K5 at 10 uM
[40] = target: Serine/threonine-protein kinase NIM1 (Homo sapiens) (UniProt Q8IY84); experiment: Inhibition of NIM1 at 10 uM
[41] = target: Inhibitor of nuclear factor kappa-B kinase subunit epsilon (Homo sapiens) (UniProt Q14164); experiment: Inhibition of IKKe at 10 uM
[42] = target: Tyrosine-protein kinase receptor TYRO3 (Homo sapiens) (UniProt Q06418); experiment: Inhibition of TYRO3 at 10 uM
Tyrosine-protein kinase receptor TYRO3 (Homo sapiens), sequence (Q06418 whole entry): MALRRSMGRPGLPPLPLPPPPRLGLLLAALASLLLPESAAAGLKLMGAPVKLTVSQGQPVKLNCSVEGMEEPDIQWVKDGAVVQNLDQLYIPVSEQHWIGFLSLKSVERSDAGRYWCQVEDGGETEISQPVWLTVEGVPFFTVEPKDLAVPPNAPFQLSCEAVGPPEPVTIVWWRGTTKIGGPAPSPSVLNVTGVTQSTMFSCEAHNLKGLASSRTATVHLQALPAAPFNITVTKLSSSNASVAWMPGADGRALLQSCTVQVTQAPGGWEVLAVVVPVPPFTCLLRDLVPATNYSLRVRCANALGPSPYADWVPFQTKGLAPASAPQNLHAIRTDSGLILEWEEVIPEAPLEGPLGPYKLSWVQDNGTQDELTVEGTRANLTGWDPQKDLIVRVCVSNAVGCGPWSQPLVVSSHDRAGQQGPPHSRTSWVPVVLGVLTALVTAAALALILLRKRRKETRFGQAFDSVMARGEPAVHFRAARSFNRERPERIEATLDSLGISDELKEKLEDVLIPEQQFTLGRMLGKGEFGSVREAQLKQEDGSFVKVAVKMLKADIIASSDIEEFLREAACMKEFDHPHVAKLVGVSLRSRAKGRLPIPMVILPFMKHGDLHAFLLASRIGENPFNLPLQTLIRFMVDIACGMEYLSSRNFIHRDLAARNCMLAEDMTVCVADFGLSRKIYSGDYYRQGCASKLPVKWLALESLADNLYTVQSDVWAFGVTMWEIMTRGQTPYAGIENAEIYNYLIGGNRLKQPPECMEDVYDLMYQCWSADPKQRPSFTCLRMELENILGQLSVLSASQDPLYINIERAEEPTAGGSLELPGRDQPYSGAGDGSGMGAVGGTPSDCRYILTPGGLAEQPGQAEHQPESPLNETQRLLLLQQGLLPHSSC

Tyrosine-protein kinase JAK2 (Homo sapiens), sequence (O60674 whole entry): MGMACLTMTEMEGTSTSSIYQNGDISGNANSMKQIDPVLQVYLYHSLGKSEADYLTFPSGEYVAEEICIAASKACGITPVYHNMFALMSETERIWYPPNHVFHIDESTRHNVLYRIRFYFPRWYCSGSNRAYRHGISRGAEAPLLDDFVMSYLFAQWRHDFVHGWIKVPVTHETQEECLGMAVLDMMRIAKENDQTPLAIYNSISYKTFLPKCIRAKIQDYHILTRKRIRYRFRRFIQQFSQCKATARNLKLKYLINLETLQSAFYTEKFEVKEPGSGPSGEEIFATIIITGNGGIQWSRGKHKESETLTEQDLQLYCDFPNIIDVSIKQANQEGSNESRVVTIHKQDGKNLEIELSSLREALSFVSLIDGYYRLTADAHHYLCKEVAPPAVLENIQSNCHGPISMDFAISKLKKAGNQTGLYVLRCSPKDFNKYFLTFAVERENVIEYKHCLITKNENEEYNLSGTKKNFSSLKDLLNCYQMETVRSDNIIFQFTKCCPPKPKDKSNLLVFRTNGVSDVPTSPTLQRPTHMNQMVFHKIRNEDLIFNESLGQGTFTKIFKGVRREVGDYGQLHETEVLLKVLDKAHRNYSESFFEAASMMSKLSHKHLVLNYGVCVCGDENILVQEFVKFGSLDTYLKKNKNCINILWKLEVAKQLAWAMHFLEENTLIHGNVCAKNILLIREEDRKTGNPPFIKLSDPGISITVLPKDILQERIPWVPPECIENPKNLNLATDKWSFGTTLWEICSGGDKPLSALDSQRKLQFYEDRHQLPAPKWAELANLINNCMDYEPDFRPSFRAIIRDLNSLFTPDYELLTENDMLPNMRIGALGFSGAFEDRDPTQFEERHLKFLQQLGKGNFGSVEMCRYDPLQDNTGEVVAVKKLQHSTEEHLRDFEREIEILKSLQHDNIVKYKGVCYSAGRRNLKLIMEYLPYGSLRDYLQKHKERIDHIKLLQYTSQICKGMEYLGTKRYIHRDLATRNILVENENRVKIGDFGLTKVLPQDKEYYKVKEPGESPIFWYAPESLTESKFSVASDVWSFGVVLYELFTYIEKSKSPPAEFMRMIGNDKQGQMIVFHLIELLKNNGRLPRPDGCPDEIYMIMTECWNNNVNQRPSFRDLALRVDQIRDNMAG
Casein kinase I isoform epsilon (Homo sapiens), sequence (P49674 whole entry, looked up, canonical isoform): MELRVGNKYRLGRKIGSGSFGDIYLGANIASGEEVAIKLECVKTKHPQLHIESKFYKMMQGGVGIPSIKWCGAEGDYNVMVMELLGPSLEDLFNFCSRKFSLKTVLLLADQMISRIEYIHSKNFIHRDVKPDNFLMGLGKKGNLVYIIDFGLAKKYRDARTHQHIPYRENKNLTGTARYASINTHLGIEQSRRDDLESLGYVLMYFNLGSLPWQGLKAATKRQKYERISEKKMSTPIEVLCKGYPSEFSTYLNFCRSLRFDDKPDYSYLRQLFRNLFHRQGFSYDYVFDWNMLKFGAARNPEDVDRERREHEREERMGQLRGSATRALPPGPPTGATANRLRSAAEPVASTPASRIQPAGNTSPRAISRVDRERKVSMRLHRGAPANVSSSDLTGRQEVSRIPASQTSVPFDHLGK
Ephrin type-A receptor 1 (Homo sapiens), sequence (P21709 whole entry): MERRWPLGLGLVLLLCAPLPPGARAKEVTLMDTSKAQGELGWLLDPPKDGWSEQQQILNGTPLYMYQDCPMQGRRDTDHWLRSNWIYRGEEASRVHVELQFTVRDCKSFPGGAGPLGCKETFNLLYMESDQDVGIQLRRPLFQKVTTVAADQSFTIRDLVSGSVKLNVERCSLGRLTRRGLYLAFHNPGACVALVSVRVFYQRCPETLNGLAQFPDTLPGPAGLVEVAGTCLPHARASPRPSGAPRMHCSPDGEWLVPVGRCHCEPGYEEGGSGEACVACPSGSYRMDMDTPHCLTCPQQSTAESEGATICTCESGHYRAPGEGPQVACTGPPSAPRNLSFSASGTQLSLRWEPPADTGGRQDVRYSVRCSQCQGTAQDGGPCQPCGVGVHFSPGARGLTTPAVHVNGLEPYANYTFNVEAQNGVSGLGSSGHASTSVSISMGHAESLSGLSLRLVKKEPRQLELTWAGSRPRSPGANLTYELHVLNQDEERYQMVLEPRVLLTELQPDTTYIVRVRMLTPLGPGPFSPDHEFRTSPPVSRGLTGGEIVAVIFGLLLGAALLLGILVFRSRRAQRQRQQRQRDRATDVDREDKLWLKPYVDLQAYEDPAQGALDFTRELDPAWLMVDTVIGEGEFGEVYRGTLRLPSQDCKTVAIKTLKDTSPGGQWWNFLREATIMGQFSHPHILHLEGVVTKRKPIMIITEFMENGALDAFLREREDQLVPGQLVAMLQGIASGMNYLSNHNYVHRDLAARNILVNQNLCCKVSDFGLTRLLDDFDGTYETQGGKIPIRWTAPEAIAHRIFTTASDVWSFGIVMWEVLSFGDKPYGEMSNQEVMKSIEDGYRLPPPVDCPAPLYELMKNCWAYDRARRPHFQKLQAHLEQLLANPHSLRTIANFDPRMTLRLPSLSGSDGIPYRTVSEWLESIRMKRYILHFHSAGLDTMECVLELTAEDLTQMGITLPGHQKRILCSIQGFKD
Serine/threonine-protein kinase 38 (Homo sapiens), sequence (Q15208 2-465 limits assumed): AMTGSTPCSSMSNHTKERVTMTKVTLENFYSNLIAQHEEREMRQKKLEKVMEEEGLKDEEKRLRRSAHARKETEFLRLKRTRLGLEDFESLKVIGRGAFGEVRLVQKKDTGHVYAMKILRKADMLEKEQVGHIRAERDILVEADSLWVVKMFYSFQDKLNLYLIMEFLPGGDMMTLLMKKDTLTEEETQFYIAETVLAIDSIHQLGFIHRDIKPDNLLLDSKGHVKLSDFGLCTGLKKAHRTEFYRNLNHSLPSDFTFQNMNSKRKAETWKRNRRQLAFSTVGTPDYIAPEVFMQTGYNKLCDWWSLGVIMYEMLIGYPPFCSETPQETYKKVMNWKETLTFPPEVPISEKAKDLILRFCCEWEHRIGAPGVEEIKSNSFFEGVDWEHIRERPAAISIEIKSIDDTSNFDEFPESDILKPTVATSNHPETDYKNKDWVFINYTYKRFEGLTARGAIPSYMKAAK
Tyrosine-protein kinase FRK (Homo sapiens), sequence (P42685 whole entry): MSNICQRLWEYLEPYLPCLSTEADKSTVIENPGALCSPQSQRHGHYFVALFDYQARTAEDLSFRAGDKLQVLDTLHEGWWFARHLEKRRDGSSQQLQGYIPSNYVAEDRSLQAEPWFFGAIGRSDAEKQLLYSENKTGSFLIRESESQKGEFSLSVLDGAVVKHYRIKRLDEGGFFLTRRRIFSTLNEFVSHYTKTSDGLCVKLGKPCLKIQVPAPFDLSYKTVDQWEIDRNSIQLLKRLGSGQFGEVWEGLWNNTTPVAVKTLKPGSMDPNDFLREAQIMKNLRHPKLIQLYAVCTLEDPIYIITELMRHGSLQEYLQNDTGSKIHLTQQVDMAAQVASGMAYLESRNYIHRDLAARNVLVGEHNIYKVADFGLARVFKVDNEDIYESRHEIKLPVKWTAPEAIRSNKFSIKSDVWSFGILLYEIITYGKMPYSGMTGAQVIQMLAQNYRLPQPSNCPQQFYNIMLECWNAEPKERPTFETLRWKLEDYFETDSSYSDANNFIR
Glycogen synthase kinase-3 beta (Homo sapiens), sequence (P49841 whole entry, looked up): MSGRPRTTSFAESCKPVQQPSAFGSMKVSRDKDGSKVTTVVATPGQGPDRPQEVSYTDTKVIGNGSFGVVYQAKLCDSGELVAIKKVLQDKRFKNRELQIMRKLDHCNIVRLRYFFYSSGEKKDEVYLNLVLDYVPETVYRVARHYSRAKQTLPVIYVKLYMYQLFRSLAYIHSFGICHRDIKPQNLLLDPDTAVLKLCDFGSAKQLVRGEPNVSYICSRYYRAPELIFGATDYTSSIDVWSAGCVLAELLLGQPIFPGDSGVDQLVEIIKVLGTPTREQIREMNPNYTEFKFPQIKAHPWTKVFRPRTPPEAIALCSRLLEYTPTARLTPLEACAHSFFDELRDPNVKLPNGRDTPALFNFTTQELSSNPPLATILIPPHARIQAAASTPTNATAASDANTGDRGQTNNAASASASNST

SMILES: COc1ccc2c3ccnc(C(F)(F)F)c3n(CCCCN)c2c1
- inhibition [1]: 26%
- inhibition [2]: 36%
- inhibition [3]: 2%
- inhibition [4]: 11%
- inhibition [5]: 87%
- inhibition [6]: 86%
- inhibition [7]: 16%
- inhibition [8]: 91%
- inhibition [9]: 91%
- inhibition [10]: 41%
- inhibition [11]: 35%
- inhibition [12]: 68%
- inhibition [13]: 53%
- inhibition [14]: 0%
- inhibition [15]: 99%
- inhibition [16]: 16%
- inhibition [17]: 18%
- inhibition [18]: 0%
- inhibition [19]: 4%
- inhibition [20]: 23%
- inhibition [21]: 13%
- inhibition [22]: 93%
- inhibition [23]: 5%
- inhibition [24]: 0%
- inhibition [25]: 3%
- inhibition [26]: 0%
- inhibition [27]: 0%
- inhibition [28]: 42%
- inhibition [29]: 31%
- inhibition [30]: 35%
- inhibition [31]: 16%
- inhibition [32]: 10%
- inhibition [33]: 52%
- inhibition [34]: 27%
- inhibition [35]: 13%
- inhibition [36]: 4%
- inhibition [37]: 41%
- inhibition [38]: 0%
- inhibition [39]: 1%
- inhibition [40]: 1%
- inhibition [41]: 0%
- inhibition [42]: 16%
